Data taken from the NIST ThermoML archive (doi:10.1016/j.jct.2014.06.012).
Where “and” joins values, the source holds several entries; their conditions need not be identical. Equal entries are not always repeated. Numbers after ± are expanded uncertainties.

Assay: molar heat capacity at constant pressure
Settings: 101.33 kPa, Crystal 1, Small sample (50 mg) DSC

O=P([O-])([O-])[O-].[Cs+].[Mn+2] [cesium manganese(II) phosphate]
Settings | molar heat capacity at constant pressure
427.5 K | 167.95 ± 9.1 J/K/mol
430 K | 167.95 ± 9.1 J/K/mol
432.5 K | 167.95 ± 9.1 J/K/mol
435 K | 168.78 ± 9.1 J/K/mol
437.5 K | 168.78 ± 9.1 J/K/mol
440 K | 169.62 ± 9.1 J/K/mol and 168.78 ± 9.1 J/K/mol
442.5 K | 169.62 ± 9.1 J/K/mol
445 K | 169.62 ± 9.1 J/K/mol
447.5 K | 169.62 ± 9.1 J/K/mol
450 K | 170.45 ± 9.1 J/K/mol
452.5 K | 170.45 ± 9.1 J/K/mol
455 K | 170.45 ± 9.1 J/K/mol
457.5 K | 170.45 ± 9.1 J/K/mol
460 K | 171.28 ± 9.1 J/K/mol
462.5 K | 171.28 ± 9.1 J/K/mol
465 K | 171.28 ± 9.1 J/K/mol
467.5 K | 171.28 ± 9.1 J/K/mol
469.9 K | 172.11 ± 9.1 J/K/mol
470 K | 172.11 ± 9.1 J/K/mol
472.5 K | 172.11 ± 9.1 J/K/mol
475 K | 172.11 ± 9.1 J/K/mol
477.5 K | 172.11 ± 9.1 J/K/mol
480 K | 172.94 ± 9.1 J/K/mol
482.5 K | 172.94 ± 9.1 J/K/mol
485 K | 172.94 ± 9.1 J/K/mol
487.5 K | 172.94 ± 9.1 J/K/mol
490 K | 173.77 ± 9.1 J/K/mol
492.5 K | 173.77 ± 9.1 J/K/mol
495 K | 173.77 ± 9.1 J/K/mol
497.5 K | 174.6 ± 9.1 J/K/mol
500 K | 174.6 ± 9.1 J/K/mol
502.5 K | 174.6 ± 9.1 J/K/mol
505.3 K | 174.6 ± 9.1 J/K/mol
507.5 K | 175.44 ± 9.1 J/K/mol
510 K | 175.44 ± 9.1 J/K/mol
512.5 K | 175.44 ± 9.1 J/K/mol
515 K | 175.44 ± 9.1 J/K/mol
517.5 K | 176.27 ± 9.1 J/K/mol
520 K | 176.27 ± 9.1 J/K/mol
522.5 K | 176.27 ± 9.1 J/K/mol
525 K | 176.27 ± 9.1 J/K/mol
527.5 K | 177.1 ± 9.1 J/K/mol
530 K | 177.1 ± 9.1 J/K/mol
532.5 K | 177.1 ± 9.1 J/K/mol
535 K | 177.1 ± 9.1 J/K/mol
537.5 K | 177.93 ± 9.1 J/K/mol
540 K | 177.93 ± 9.1 J/K/mol
542.5 K | 177.93 ± 9.1 J/K/mol
545 K | 177.93 ± 9.1 J/K/mol
547.5 K | 178.76 ± 9.1 J/K/mol
550 K | 178.76 ± 9.1 J/K/mol
552.5 K | 178.76 ± 9.1 J/K/mol
555 K | 178.76 ± 9.1 J/K/mol
557.5 K | 179.59 ± 9.1 J/K/mol
560 K | 179.59 ± 9.1 J/K/mol
562.5 K | 179.59 ± 9.1 J/K/mol
565 K | 179.59 ± 9.1 J/K/mol
567.5 K | 180.42 ± 9.1 J/K/mol
570 K | 180.42 ± 9.1 J/K/mol
572.5 K | 180.42 ± 9.1 J/K/mol
575 K | 180.42 ± 9.1 J/K/mol
577.5 K | 181.26 ± 9.1 J/K/mol
580 K | 181.26 ± 9.1 J/K/mol
582.5 K | 181.26 ± 9.1 J/K/mol
585 K | 181.26 ± 9.1 J/K/mol
587.5 K | 182.09 ± 9.1 J/K/mol
590 K | 182.09 ± 9.1 J/K/mol
592.5 K | 182.09 ± 9.1 J/K/mol
595 K | 182.09 ± 9.1 J/K/mol
597.5 K | 182.92 ± 9.1 J/K/mol
600 K | 182.92 ± 9.1 J/K/mol
602.5 K | 182.92 ± 9.1 J/K/mol
605 K | 183.75 ± 9.1 J/K/mol
607.5 K | 183.75 ± 9.1 J/K/mol
610 K | 183.75 ± 9.1 J/K/mol
612.5 K | 183.75 ± 9.1 J/K/mol
615 K | 184.58 ± 10 J/K/mol
617.5 K | 184.58 ± 10 J/K/mol
620 K | 184.58 ± 10 J/K/mol
622.4 K | 184.58 ± 10 J/K/mol
625 K | 185.41 ± 10 J/K/mol
627.5 K | 185.41 ± 10 J/K/mol
630 K | 185.41 ± 10 J/K/mol
632.5 K | 186.24 ± 10 J/K/mol
635 K | 186.24 ± 10 J/K/mol
637.5 K | 186.24 ± 10 J/K/mol
640 K | 186.24 ± 10 J/K/mol
642.5 K | 186.24 ± 10 J/K/mol
645.1 K | 187.08 ± 10 J/K/mol
647.5 K | 187.08 ± 10 J/K/mol
650 K | 187.08 ± 10 J/K/mol
